The values below come from PMC6368337, “GluClR-mediated inhibitory postsynaptic currents reveal targets for ivermectin and potential mechanisms of ivermectin resistance” (PLoS Pathogens, 2019).

Type in all cases: cell-based, H. contortus
One assay concerns the target α (avr-14b) GluClRs (Haemonchus contortus, UniProt O46124). The assay can be described thus: Two-electrode voltage clamp in oocytes, α GluClRs. How it is done:
(§1) cDNAs encoding the α (avr-14b) (pcDNA 3.1+) or β (pUNIV) GluClR subunits of H. contortus were nuclear injected into oocytes (NASCO, WI USA) or transfected into HEK293AD cells (CellBank Australia) using a calcium phosphate-DNA co-precipitate method. Synapse formation between neurons and HEK293 cells was promoted by co-transfecting neuroligin 2A or 1B and the cDNA encoding CD4 surface antigen was also added to the transfection mixture so as to identify transfected cells. The oocytes and HEK cells were used for experiments 2–3 days after the introduction of the cDNAs. All experiments were done at room temperature (22 ± 1°C).
(§2) Xenopus laevis oocytes were harvested by surgical incision. The oocytes were then defolliculated with 1.5 mg/ml collagenase for 2 hours. Free oocytes were rinsed with calcium-free OR-2 solution containing (in mM) 82.5 NaCl, 2 KCl, 1 MgCl2, 5 HEPES, pH 7.4 and mature stage V or VI oocytes were isolated for experiments. The DNAs coding for α and β subunits were nuclear injected into the oocytes using a Nanoliter 2000 microinjector (WPI Inc) at a ratio of (α:β), 1:0, 0:1, 1:1 and 1:50. The total amount of injected DNA in all combinations was 400 ng ml^−1, including the 1:50 (α:β) combination (8 ng of DNA encoding the α and 392 ng of DNA encoding β subunits). Injected oocytes were incubated in ND96 storage solution (in mM) 96 NaCl, 2 KCl, 1 MgCl2.6H2O, 1.8 CaCl2, 5 HEPES, 50 μg ml^−1 gentamicin, 2.5 sodium pyruvate, 0.5 theophylline, pH 7.4 at 16°C for 2–3 days before experiment.
(§3) For the two-electrode voltage clamp recordings, each oocyte was secured in a cell bath that was continually perfused with ND96 recording solution (ND96 storage solution without pyruvate, theophylline and gentamicin). […] The two microelectrodes contained 3 M KCl and had resistances of 0.2–2 MΩ. Recordings were done using Clampex 10.2 software (Molecular Devices) at a clamped voltage of −40 mV. Currents were low-pass filtered at 200 Hz, sampled at 2 kHz using a Gene Clamp 500B amplifier and digitised by a Digidata 1440A interface. The IVM (IVM B1a) concentration-response experiments were standardised by using an application protocol that consisted of applying increasing concentrations of IVM for, respectively, 3 min, 3 min, 3 min, 2 min, 1 min, 1 min and 0.5 min.
(§4) Group data were analysed in SigmaPlot 13.0 using one-way ANOVAs, where p < 0.05 was taken as the significance threshold and expressed as mean ± SEM. Tests for normally distributed data are built into the SigmaPlot software. Confocal images were captured and analysed with Zen 2012 SP2 (Zeiss) software. Oocyte concentration-response data were fit to a Hill equation to obtain an EC50 and Hill co-efficient for each oocyte recording. These parameters were then averaged across multiple oocyte experiments of the same type. Single channel recordings were analysed in QuB software. […] The selected critical times eliminated periods of receptor desensitisation while retaining singe receptor active periods. Mean active period duration and intra-activation open probability was estimated from each patch. Group means were obtained by averaging across multiple patches for each recording condition.

For another assay, the target named is αβ (1:50) GluClRs (Haemonchus contortus, UniProt O46124+P91730). The assay can be described thus: Two-electrode voltage clamp in oocytes, αβ (1:50) GluClRs. On the procedure:
as §1, §2, §3, §4

Another assay concerns the target αβ (1:1) GluClRs (Haemonchus contortus, UniProt O46124+P91730). In words: IPSC recording in HEK293-neuron heteroculture, αβ (1:1) GluClRs. The following applies: 5 nM IVM. How it is done:
as §1
Primary neuronal cultures were prepared from cortices of E18 rat embryos, (University of Queensland Biological Services), which were triturated and plated at 100,000 cells per 18-mm poly-D-lysine-coated coverslip in DMEM with 10% fetal bovine serum. After 24 h the entire medium was replaced with Neurobasal medium that included 2% B27 and 1% GlutaMAX supplements. After one week half of this medium was replaced and the neurons were allowed to grow in vitro for 3–5 weeks before introducing the transfected HEK293 cells. Recordings of synaptic currents were done in whole-cell configuration at ‐70 mV using an Axopatch 200B amplifier (Molecular Devices), filtered at 5 kHz and digitized at 20 kHz using Clampex (pClamp 10 suite, Molecular Devices) via a Digidata 1440A digitizer.

α (avr-14b) GluClRs, sequence (O46124 entry or part of it): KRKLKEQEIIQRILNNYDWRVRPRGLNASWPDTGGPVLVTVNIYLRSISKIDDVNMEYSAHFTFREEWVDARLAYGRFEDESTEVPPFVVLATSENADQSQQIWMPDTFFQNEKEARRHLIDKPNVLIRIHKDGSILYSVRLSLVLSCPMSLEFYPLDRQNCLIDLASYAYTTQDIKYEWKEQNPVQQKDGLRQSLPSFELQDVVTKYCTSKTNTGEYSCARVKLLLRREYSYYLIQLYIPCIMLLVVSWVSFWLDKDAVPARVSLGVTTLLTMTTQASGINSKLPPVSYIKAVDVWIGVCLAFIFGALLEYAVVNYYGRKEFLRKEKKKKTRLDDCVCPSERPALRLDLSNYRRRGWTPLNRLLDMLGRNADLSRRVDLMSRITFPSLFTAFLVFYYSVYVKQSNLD
αβ (1:50) GluClRs, sequence (O46124 entry or part of it): as above
αβ (1:50) GluClRs, sequence (P91730 19-432): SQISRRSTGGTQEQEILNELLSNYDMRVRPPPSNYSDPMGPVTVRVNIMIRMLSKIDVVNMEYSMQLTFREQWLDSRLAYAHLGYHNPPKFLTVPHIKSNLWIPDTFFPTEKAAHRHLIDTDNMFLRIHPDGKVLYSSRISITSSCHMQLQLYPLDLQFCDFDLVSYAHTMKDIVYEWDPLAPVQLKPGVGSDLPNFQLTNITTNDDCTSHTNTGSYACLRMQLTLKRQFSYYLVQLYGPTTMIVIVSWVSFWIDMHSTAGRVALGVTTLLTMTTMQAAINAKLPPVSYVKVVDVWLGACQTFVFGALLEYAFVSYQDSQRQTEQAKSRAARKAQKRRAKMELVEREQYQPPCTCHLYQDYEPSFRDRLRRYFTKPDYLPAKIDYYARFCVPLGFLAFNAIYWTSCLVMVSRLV
αβ (1:1) GluClRs, sequence (P91730 19-432): as above
αβ (1:1) GluClRs, sequence (O46124 entry or part of it): as the sequence (O46124 entry or part of it) above

For `CC[C@H](C)[C@H]1O[C@]2(CC[C@@H]1C)C[C@@H]1C[C@@H](C/C=C(\C)[C@@H](O[C@H]3C[C@H](OC)[C@@H](O[C@H]4C[C@H](OC)[C@@H](O)[C@H](C)O4)[C@H](C)O3)[C@@H](C)/C=C/C=C3\CO[C@@H]4[C@H](O)C(C)=C[C@@H](C(=O)O1)[C@]34O)O2` [IVM, Ivermectin], the EC50 stood at 22 ± 3 nM at α (avr-14b) GluClRs (EC50, oocytes, holding potential −40 mV) and 141 ± 11 nM at αβ (1:50) GluClRs (EC50, oocytes, cDNA injection ratio α:β 1:50, −40 mV). The Hill co-efficient at α (avr-14b) GluClRs (oocytes, −40 mV) is 1.9 ± 0.1; at αβ (1:50) GluClRs (oocytes, α:β 1:50, −40 mV), 1.6 ± 0.1. Moreover, the Emax on α (avr-14b) GluClRs (read-out: maximal response, % of that seen with saturating glutamate) stood at 59%; at αβ (1:50) GluClRs (read-out: maximal response, % of saturating glutamate response), 33%. Moreover, the “differential efficacy between α and αβ (1:50) GluClRs” value at αβ (1:50) GluClRs (30 nM, α versus αβ (1:50)) is recorded as “maintained”. Also, on αβ (1:1) GluClRs (15 minutes), the “IPSC activation (10–90% rise) time” value was determined as 10 ± 1 ms. On αβ (1:1) GluClRs (15 minutes), the “peak IPSC amplitude” value is 124 ± 18 pA. The “IPSC decay time constant” value at αβ (1:1) GluClRs (15 minutes after start of application, −70 mV) is listed as 72 ± 4 ms.

The EC50 is the midpoint of the concentration-response curve.
